Target: T1, RIPK1 (receptor interacting serine/threonine protein kinase 1) (Homo sapiens, UniProt Q13546)
T1 construct: Flag-RIPK1 immunoprecipitated from HEK293T cells
T1 sequence (Q13546 1-671): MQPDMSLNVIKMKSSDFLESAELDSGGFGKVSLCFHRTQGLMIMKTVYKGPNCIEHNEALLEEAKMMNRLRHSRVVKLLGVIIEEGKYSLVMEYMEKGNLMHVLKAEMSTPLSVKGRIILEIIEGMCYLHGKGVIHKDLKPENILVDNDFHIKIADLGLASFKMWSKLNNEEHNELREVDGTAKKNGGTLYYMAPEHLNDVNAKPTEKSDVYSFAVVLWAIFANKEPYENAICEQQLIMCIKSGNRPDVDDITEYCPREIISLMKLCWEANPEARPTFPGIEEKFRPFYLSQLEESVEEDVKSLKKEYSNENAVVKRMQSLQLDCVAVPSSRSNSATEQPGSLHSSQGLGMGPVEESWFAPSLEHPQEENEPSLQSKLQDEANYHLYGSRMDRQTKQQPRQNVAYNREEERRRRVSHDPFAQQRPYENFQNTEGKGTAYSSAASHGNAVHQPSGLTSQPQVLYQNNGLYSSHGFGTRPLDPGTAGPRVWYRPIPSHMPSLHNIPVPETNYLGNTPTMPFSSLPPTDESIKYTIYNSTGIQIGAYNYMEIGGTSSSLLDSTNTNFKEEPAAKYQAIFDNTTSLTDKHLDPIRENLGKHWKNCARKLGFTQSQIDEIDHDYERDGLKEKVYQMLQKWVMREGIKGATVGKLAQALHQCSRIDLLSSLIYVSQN
Assay: in vitro kinase assay on immunoprecipitated Flag-RIPK1 (Kinase-Glo; p-S166 western blot)
Format: biochemical

Compound: CN1C(=O)[C@@H](Cc2c[nH]c3c(Cl)c(F)ccc23)N(C=O)C1=O [ZJU-37]
- IC50: 366 nM

— article PMC8975999, “Inhibition of RIPK1 by ZJU-37 promotes oligodendrocyte progenitor proliferation and remyelination via NF-κB pathway” (Cell Death Discovery, 2022)
